The values below come from patent US6008247A, “2,4-bis[(4-amidino)phenyl]furans as anti-Pneumocystis carinii agents” (The University of North Carolina at Chapel Hill, priority 1998, dated 1999).

Data set [1] deals with duplex oligomer d(CGCGAATTCGCG)2 (A2 T2). As to the kind of experiment: Thermal melting with the duplex oligomer, ranking of relative DNA binding affinities. Particulars: duplex oligomer A2T2. The text has this: (§1) Table 2 contains thermal melting results from evaluation of the interaction of compounds 3, 5 and 7 with the DNA duplex polymer poly(dA-dT). In order to rank the relative binding affinities for interactions with DNA, the duplex oligomer d(CGCGAATTCGCG)2 (A2 T2) was employed. […] The increase in melting temperature on complex formation with the furan dications are related to the binding affinities of these molecules with nucleic acid. This enhanced DNA affinity of the N-alkyl substituted amidines is though to the in large part due to additional non-bonded interactions between the alkyl groups and the walls of the minor groove.
^b) Increase in thermal melting of the oligomer […], see

A further data set concerns Pneumocystis carinii. As to the kind of experiment: In vivo evaluation on intravenous administration against P. carinii in the immunosuppressed rat model. Particulars: saline = 100.0.
Data set [2] has as its system DNA duplex polymer poly(dA-dT). As to the kind of experiment: Thermal melting, interaction with the DNA duplex polymer poly(dA-dT). It counts as binding.
Text: as §1
^a) Increase in thermal melting of polyA-- polyT, see Boykin, […]

Data set [3] can be described thus: Toxicity in the immunosuppressed rat model of Pneumocystis carinii pneumonia. In kind it is in vivo. Particulars: iv. The text has this:
Data obtained with pentamidine, a compound currently used clinically for treatment of PCP, are included for comparison.
^c) Evluation of iv dosage of the furon dicatons against P. carinii i
rats as descibed in Boykin, supra.

Where a name gives a salt, the structure may show the parent alone.

Consider `N=C(N)c1ccc(-c2coc(-c3ccc(C(=N)N)cc3)c2)cc1` [Compound 1, 2,4-Bis[4-{(amidino)pnehyl}]furan], for which the “ΔTM (oligomer), increase in thermal melting of the oligomer” value (from here on “ΔTM (oligomer), increase”) in data set [1] came out at 9.1. Also, in the data set on Pneumocystis carinii (10.0 umol/kg/d), the Cysts/g lung is listed as 0.44 % of control. Further, the “ΔTm (DNA), increase in thermal melting of polyA-polyT” value (shortened to “ΔTm (DNA), increase”) in data set [2] amounted to 19.0. The compound also had a Toxicity in data set [3] (10.0 umol/kg/d) of 0.
Regarding `CC(C)NC(=N)c1ccc(-c2coc(-c3ccc(C(=N)NC(C)C)cc3)c2)cc1` [Compound 2, 2,4-Bis[4-{N-(i-propylamidino)phenyl}]furan], the “ΔTM (oligomer), increase” value in data set [1] came out at 10.9. Besides, the Cysts/g lung in the data set on Pneumocystis carinii (0.25 umol/kg/d) is on record as 38.20 % of control; in the data set with Pneumocystis carinii (1.0 umol/kg/d) it was 0.84 % of control; in the data set on Pneumocystis carinii (5.0 umol/kg/d) it was 0.0003 % of control; in the data set with Pneumocystis carinii (10.0 umol/kg/d) it was 0.03 % of control. Also, the “ΔTm (DNA), increase” value in data set [2] is 17.6. The Toxicity in data set [3] (0.25 umol/kg/d), in data set [3] (1.0 umol/kg/d), in data set [3] (5.0 umol/kg/d) and in data set [3] (10.0 umol/kg/d) was 0 throughout.
In the case of `CC(C)CNC(=N)c1ccc(-c2coc(-c3ccc(C(=N)NCC(C)C)cc3)c2)cc1` [Compound 3, 2-,4-Bis[4-{-(i-butylamidino)phenyl}]furan], in data set [1], the “ΔTM (oligomer), increase” value came out at 9.3. Moreover, the “ΔTm (DNA), increase” value in data set [2] is recorded as 20.4.
In the case of `N=C(NC1CCCC1)c1ccc(-c2coc(-c3ccc(C(=N)NC4CCCC4)cc3)c2)cc1` [Compound 4, 2,4-Bis[4-{N-(cyelopentylamidino)phenyl}]furan], the “ΔTM (oligomer), increase” value in data set [1] was 13.6. In addition, the Cysts/g lung is on record as 3.21 % of control with Pneumocystis carinii (1.0 umol/kg/d) and 0.06 % of control in the data set with Pneumocystis carinii (10.0 umol/kg/d). Besides, in data set [2], the “ΔTm (DNA), increase” value is reported as 20.4. For the same compound, the Toxicity in data set [3] (10.0 umol/kg/d) was found to be 0.
Consider `c1cc(-c2coc(-c3ccc(C4=NCCN4)cc3)c2)ccc1C1=NCCN1` [Compound 5, 2,4-Bis[4,5-dihydro-1H-imidazol-2-yl)phenyl]furan Dihydrochloride], for which the “ΔTM (oligomer), increase” value in data set [1] was determined as 7.2. Moreover, the “ΔTm (DNA), increase” value in data set [2] came to 16.8.
With `N=C(N)c1ccc(OCCCCCOc2ccc(C(=N)N)cc2)cc1` [pentamidine, reference compound], in the data set on Pneumocystis carinii (22.0 umol/kg/d), the Cysts/g lung is reported as 1.46 % of control.
